From US20060069132A1, “Azolecarboxamide herbicides” (priority 2004, published 2006)

Experiments:
[1] = system: barnyardgrass; assay: Test B pre-/postemergence herbicide test; format: in vivo, Echinochloa crus-galli; details: for Barnyardgrass plant response rating: postemergence
Method in brief: (§1)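 Response was scored visually 13 to 15 days after treatment against untreated greenhouse controls, 0 meaning no effect and 100 complete control. Formulations (solvent mixture plus surfactant) went onto soil after planting, onto foliage of 1- to 4-leaf plants, and onto 2-leaf plants in a flooded paddy set including rice and barnyardgrass.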

[2] = system: cocklebur; assay: Test B pre-/postemergence herbicide test; format: in vivo, Xanthium strumarium; details: for Cocklebur plant response rating: postemergence
Method in brief: as §1

[3] = system: corn; assay: Test B pre-/postemergence herbicide test; format: in vivo, Zea mays; details: for Corn plant response rating: postemergence
Method in brief: (§2)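 Test chemicals in a non-phytotoxic solvent mixture with surfactant were applied preemergence to seeded species and postemergence to plants 2-18 cm tall (1- to 4-leaf stage); rice and barnyardgrass were also tested in a flooded paddy at the 2-leaf stage. Visual rating versus controls after 13-15 days in greenhouse, scale 0 (no effect) to 100 (complete control).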

[4] = system: giant foxtail; assay: Test B pre-/postemergence herbicide test; format: in vivo, Setaria faberi; details: for Foxtail, Giant plant response rating: postemergence
Method in brief: as §2

[5] = system: lambsquarters; assay: Test B pre-/postemergence herbicide test; format: in vivo, Chenopodium album; details: for Lambsquarters plant response rating: postemergence
Method in brief: as §2

[6] = system: morningglory; assay: Test B pre-/postemergence herbicide test; format: in vivo, Ipomoea coccinea; details: for Morningglory plant response rating: postemergence
Method in brief: as §1

[7] = system: pigweed; assay: Test B pre-/postemergence herbicide test; format: in vivo, Amaranthus retroflexus; details: for Pigweed plant response rating: postemergence
Method in brief: as §2

[8] = system: velvetleaf; assay: Test B pre-/postemergence herbicide test; format: in vivo, Abutilon theophrasti; details: for Velvetleaf plant response rating: postemergence
Method in brief: as §2

[9] = system: blackgrass; assay: Test B postemergence herbicide test; format: in vivo, Alopecurus myosuroides; details: postemergence
Method in brief: (§3)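 Visual control ratings, 0–100 versus untreated controls, taken after 13 to 15 days in the greenhouse. Blackgrass received a postemergence spray at the 1- to 4-leaf stage (2–18 cm); ducksalad, umbrella sedge and barnyardgrass were flooded-paddy treated at 2 leaves.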

[10] = system: wheat; assay: Test B postemergence herbicide test; format: in vivo, Triticum aestivum; set-up: key to Wheat plant response rating: 0 = no effect, 100 = complete control; details: postemergence
Method in brief: (§4)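 Plants grow to 1- to 4-leaf stage (2–18 cm) for postemergence spraying, or to 2-leaf stage for the paddy test. Formulated compound is applied. Greenhouse holding lasts 13–15 days. Response is scored visually relative to controls, 0 no effect to 100 complete control; a dash means no result.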

[11] = system: wild oat; assay: Test B postemergence herbicide test; format: in vivo, Avena fatua; details: postemergence
Method in brief: as §4

[12] = system: rice; assay: Test B flooded paddy test; format: in vivo, Oryza sativa; details: 1000 g ai/ha, scale 0 to 100 (0 no effect, 100 complete control)
Method in brief: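 Paddy species grown to the 2-leaf stage under flooding; blackgrass sprayed postemergence at 2–18 cm (1- to 4-leaf stage). Plants kept in a greenhouse for 13 to 15 days, then visually rated against controls on 0 (no effect) to 100 (complete control).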

[13] = system: small flower umbrella sedge; assay: Test B flooded paddy test; format: in vivo, Cyperus difformis; details: 1000 g ai/ha, scale 0 to 100 (0 no effect, 100 complete control)
Method in brief: as §3

[14] = system: ducksalad; assay: Test B flooded paddy test; format: in vivo, Heteranthera limosa; details: 1000 g ai/ha, scale 0 to 100 (0 no effect, 100 complete control)
Method in brief: as §3

[15] = system: barnyardgrass; assay: Test B flooded paddy test; format: in vivo, Echinochloa crus-galli; details: 1000 g ai/ha, scale 0 to 100 (0 no effect, 100 complete control)
Method in brief: as §3

[16] = 125 g ai/ha, 0 is no effect, 100 is complete control, preemergence
[17] = 125 g ai/ha, visual rating, scale 0 (no effect) to 100 (complete control)
[18] = 500 g ai/ha, visual rating, 0 = no effect, 100 = complete control, preemergence
[19] = 500 g ai/ha, scale 0 to 100, 0 is no effect, 100 is complete control

C=CCNC(=O)c1cccc(NC(=O)c2cc(C(C)(C)C)nn2C)n1 [Compound 318]
Plant response rating (0 to 100 scale), Barnyardgrass [1, 16]: 40
Barnyardgrass plant response rating [1, 17]: 40
Plant response rating, Barnyardgrass [1, 18]: 90
Barnyardgrass plant response rating [1, 19]: 70
Plant response rating (0 to 100 scale), Cocklebur [2, 16]: 0
Cocklebur plant response rating [2, 17]: 10
Plant response rating, Cocklebur [2, 18]: 0
Cocklebur plant response rating [2, 19]: 80
Plant response rating (0 to 100 scale), Corn [3, 16]: 0
Corn plant response rating [3, 17]: 20
Plant response rating, Corn [3, 18]: 0
Corn plant response rating [3, 19]: 20
Plant response rating (0 to 100 scale), Foxtail, Giant [4, 16]: 0
Foxtail, Giant plant response rating [4, 17]: 10
Plant response rating, Foxtail, Giant [4, 18]: 80
Foxtail, Giant plant response rating [4, 19]: 10
Plant response rating (0 to 100 scale), Lambsquarters [5, 16]: 90
Lambsquarters plant response rating [5, 17]: 80
Plant response rating, Lambsquarters [5, 18]: 100
Lambsquarters plant response rating [5, 19]: 80
Plant response rating (0 to 100 scale), Morningglory [6, 16]: 0
Morningglory plant response rating [6, 17]: 0
Plant response rating, Morningglory [6, 18]: 30
Morningglory plant response rating [6, 19]: 80
Plant response rating (0 to 100 scale), Pigweed [7, 16]: 90
Pigweed plant response rating [7, 17]: 70
Plant response rating, Pigweed [7, 18]: 100
Pigweed plant response rating [7, 19]: 100
Plant response rating (0 to 100 scale), Velvetleaf [8, 16]: 20
Velvetleaf plant response rating [8, 17]: 40
Velvetleaf plant response rating [8, 19]: 80
Blackgrass plant response rating [9, 17]: 10
Blackgrass plant response rating [9, 19]: 10
Wheat plant response rating [10, 17]: 0
Wheat plant response rating [10, 19]: 10
Oat, Wild plant response rating [11, 17]: 0
Oat, Wild plant response rating [11, 19]: 30
Rice plant response rating [12]: 40
Sedge, Umbrella plant response rating [13]: 80
Ducksalad plant response rating [14]: 70
Barnyardgrass plant response rating [15]: 70
